From patent publication EP0419844B1, “N-hydroxy-dibenz[b,e]oxepin-alkylamines and -alkanoic acid amides, related heterocyclic analogues, a process for their preparation and their use in the manufacture of medicaments” (HOECHST-ROUSSEL PHARMACEUTICALS INCORPORATED, priority 1989, dated 1991)

Key:
[1] = test system: phenyl-para-quinone induced writhing; test: Phenyl-para-benzoquinone writhing assay (analgesia); assay type: in vivo; details: Mus musculus, mice; for ED50: sc, subcutaneous dose at which 50% of the phenyl-para-quinone induced writhing is inhibited, read-out: ED₅₀
Excerpt: The compounds of the present invention are also useful as analgesic agents due to this ability to alleviate pain in mammals. […] Exptl. Biol. Med., 95, 729 (1957)].
The analgesic activity of some of the compounds expressed as either the subcutaneous dose at which 50% of the phenyl-para-quinone induced writhing is inhibited in the animals, i.e., the ED₅₀ value, or as the % decrease in writhing at a given dose is presented in Table 2.

[2] = test system: arachidonic acid-induced ear edema; test: Arachidonic Acid-Induced Mouse Ear Edema (AAEE); assay type: in vivo, female Swiss Webster mice; details: 1 mg/ear topical, 30 minutes before arachidonic acid 4 mg/ear; ear plug weight one hour later, relative to control
Procedure: Arachidonic Acid-Induced Mouse Ear Edema (AAEE)
In the arachidonic acid-induced ear edema assay, the test compound is dissolved in 30/70 propylene glycol/ethanol and is applied to both ears of groups of 6 female Swiss Webster mice at a volume of 20 »l so that a total of 1.0 mg of test compound as delivered to each ear over the inner and outer surfaces. The mice were housed together in a cage under standard conditions for 1 week prior to use with food and water ad lib. The same volume (20 »l) of vehicle is applied to each ear of a control group of mice. After 30 minutes, arachidonic acid is applied to the right ear of each mouse of each group in the amount of 4 mg/ear. Vehicle is applied to the left ear of each mouse of each group at a volume of 20 »l/ear. After an additional hour, the mice are sacrificed and a 4mm plug is taken from each ear and weighed. The difference between the right and left ear plugs was determined for each animal. The antiinflammatory activity of the test compound is expressed as the mean percent change in the ear plug weight of the treated animals relative to the mean percent change in weights of control animals' ear. (Standard: Indomethacin -90% at 1 mg/ear). Young, J.M. et al., Invest. Dermatol., 80, (1983), pp. 48-52.

TPA-induced ear edema = test: TPA-Induced Ear Edema (TPAEE); assay type: in vivo, female Swiss Webster mice; details: for TPAEE 10 »g/ear: 10 »g/ear compound topical with 10 »g TPA, ear plug weight after about 5 hours, mean percent change versus control
Procedure: TPA-Induced Ear Edema (TPAEE)
In the TPA-induced ear edema assay, TPA (12-0-tetradecanoyl-phorbol-13-acetate) is dissolved in 30/70 propylene glycol/ethanol and is applied to the right ear of groups of 6 female Swiss Webster mice at a volume of 20 »l so that a total of 10 »g of TPA is delivered to the inner and outer surfaces of the ear. The mice were housed together in a cage under standard conditions for 1 week prior to use with food and water ad lib. The test compound is dissolved in the vehicle and is applied to the right ear (the inner and outer surfaces) at a volume of 20 »l so that a total of 10 »g of the compound is delivered to the ear. After about 5 hours, the animals are sacrificed and a 4 mm diameter plug is taken from each ear and weighed. The difference between the right and left ear plug weights for each animal was determined. The antiinflammatory activity of the test compound is expressed as the mean percent change in ear plug weight of the treated animals compared to the mean percent change in the plug weight of the control animals. (Standard: Indomethacin: -86% at 1 mg/ear). Young, J.M. et al., J. Invest. Dermatol., 80 (1983), pp. 48-52.

[3] = test system: naja naja (snake venom) phospholipase A₂(PLA₂)-induced paw edema; test: Phospholipase A2-Induced Paw Edema (PIPE); assay type: in vivo, male Wistar rats; details: for PIPE 0.1 M: 0.1 M test compound injected with PLA2 (3 units/paw) in the subplantar region of the rat left hindpaw, paw displacement at two hours; for ED₅₀: standards of the PIPE assay, PLA2-induced rat paw edema
Procedure: Phospholipase A₂-Induced Paw Edema (PIPE)
The ability of compounds to reverse naja naja (snake venom) phospholipase A₂(PLA₂)-induced paw edema in male Wistar rats (100-125 gm) was measured. PLA₂ (3 units/100 »l dH₂O/paw) alone or with 0.1 M of the test compound was injected in the sulplantar region of the rat left hindpaw. Immediatly following injection and at two hours post administration, the paw was immersed in a mercury bath, and paw displacement was measured on a recorder via a transducer. The value was then converted to […]. (Standards: Quinacrine ED₅₀ = 0.1 M; Hydrocortisone ED₅₀= 0.46 M). Giessler, A.J. et al., "Agents and Action", Vol. 10, "Trends in Inflammation Research" (1981), p. 195.

SMILES	AAEE % Change @ 1 mg/ear [2] [%]	TPAEE 10 »g/ear (TPA-induced ear edema)	PIPE 0.1 M [3]	further results
CCN(O)C(=O)C(C)c1ccc2c(c1)C(=O)c1ccccc1CO2 (centres unmarked) [2-(6,11-Dihydro-11-oxodibenz[b,e,]oxepin-2-yl]-N-ethyl-N-hydroxypropanamide]	–	–	–	ED50 [1]: 3.6 mg/kg
CN(O)CCc1ccc2c(c1)C(=O)c1ccccc1CO2 [2-(6,11-Dihydro-11-oxodibenz[b,e]oxepin-2-yl)-N-hydroxy-N-methyl-ethylamine]	-46	-50	-70	–
O=C1c2ccccc2COc2ccc(CCC(=O)N(O)C3CCCCC3)cc21 [3-(6,11-Dihydro-11-oxodibenz[b,e]oxepin-2-yl)-N-cyclohexyl-N-hydroxypropanamide]	–	–	–	inhibition at 20 mg/kg [1]: 76%
CN(O)C(=O)CCc1ccc2c(c1)C(=O)c1ccccc1CO2 [3-(6,11-Dihydro-11-oxodibenz[b,e]oxepin-2-yl)-N-hydroxy-N-methylpropanamide]	-63	-71	-46	–
C[C@]12CCC(=O)C=C1CC[C@@H]1[C@@H]2[C@@H](O)C[C@@]2(C)[C@H]1CC[C@]2(O)C(=O)CO [Hydrocortisone, reference compound]	–	–	–	ED₅₀ [3]: 0.46 M
COc1ccc2c(c1)c(CC(=O)O)c(C)n2C(=O)c1ccc(Cl)cc1 [Indomethacin, reference compound]	-90	–	–	TPAEE percent change in ear plug weight (TPA-induced ear edema; standard, at 1 mg/ear): -86%
O=C1c2ccccc2COc2ccc(CC(=O)N(O)C3CCCCC3)cc21 [N-Cyclohexyl-2-(6,11-dihydro-11-oxodibenz[b,e]oxepin-2-yl)-N-hydroxyacetamide]	-29	-52	-85	inhibition at 20 mg/kg [1]: 68%
CCC(=O)O[C@](Cc1ccccc1)(c1ccccc1)[C@H](C)CN(C)C [Propoxyphene, reference compound]	–	–	–	ED50 [1]: 3.9 mg/kg
CCN(CC)CCCC(C)Nc1c2ccc(Cl)cc2nc2ccc(OC)cc12 (centres unmarked) [Quinacrine, reference compound]	–	–	–	ED₅₀ [3]: 0.1 M
